Measured values from patent publication US20240059673A1, “SUBSTITUTED INDOLE COMPOUNDS” (Gilead Sciences, Inc., priority 2020, published 2024).

Tests used:
TLR8 = target: T1, TLR8 (Homo sapiens, UniProt Q9NR97); test: TLR8 human PBMC cell-based assay; conditions: human PBMCs; TLR8 agonist Compound A 800 nM; 6 hours; cytokines (TNFa and IL12p40) in supernatant; Table 2; read-out: TLR-8 EC50
T1 construct: lymphocytes, monocytes and dendritic cells that express TLR7, TLR8 and TLR9; endogenous in cells; host or cells: cryopreserved human PBMCs from healthy donors
T1 sequence (Q9NR97 27-1041): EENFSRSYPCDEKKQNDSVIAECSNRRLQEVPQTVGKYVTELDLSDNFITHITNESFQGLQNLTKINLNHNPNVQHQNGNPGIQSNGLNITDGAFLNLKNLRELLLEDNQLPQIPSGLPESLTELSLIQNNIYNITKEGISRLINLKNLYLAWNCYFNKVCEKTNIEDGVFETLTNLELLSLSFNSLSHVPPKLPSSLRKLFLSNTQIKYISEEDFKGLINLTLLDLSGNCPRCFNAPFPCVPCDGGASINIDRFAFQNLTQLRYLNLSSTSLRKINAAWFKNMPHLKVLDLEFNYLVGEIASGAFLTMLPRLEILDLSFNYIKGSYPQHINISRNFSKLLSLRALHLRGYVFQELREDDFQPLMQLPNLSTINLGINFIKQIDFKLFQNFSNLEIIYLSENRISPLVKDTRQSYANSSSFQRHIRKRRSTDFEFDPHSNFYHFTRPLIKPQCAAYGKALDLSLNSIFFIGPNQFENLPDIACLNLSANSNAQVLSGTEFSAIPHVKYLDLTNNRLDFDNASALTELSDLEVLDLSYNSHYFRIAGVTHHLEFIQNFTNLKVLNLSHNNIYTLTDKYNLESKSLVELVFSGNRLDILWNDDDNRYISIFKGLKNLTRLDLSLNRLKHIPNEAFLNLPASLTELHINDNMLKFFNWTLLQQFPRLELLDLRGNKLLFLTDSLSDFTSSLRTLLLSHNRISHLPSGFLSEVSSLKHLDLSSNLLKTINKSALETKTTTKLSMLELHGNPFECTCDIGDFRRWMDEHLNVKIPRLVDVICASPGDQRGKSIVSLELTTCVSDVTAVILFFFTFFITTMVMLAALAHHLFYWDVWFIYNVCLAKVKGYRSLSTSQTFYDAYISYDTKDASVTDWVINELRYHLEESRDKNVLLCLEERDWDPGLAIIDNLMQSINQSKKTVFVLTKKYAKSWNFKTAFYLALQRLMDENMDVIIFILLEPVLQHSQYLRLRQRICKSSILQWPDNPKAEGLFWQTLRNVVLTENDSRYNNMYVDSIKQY
Method: TLR8 Human Peripheral Blood Mononuclear Cell (PBMC) Cell-Based Assay
Cryopreserved human PBMCs from healthy donors were thawed and resuspended in RPMI-1640 media with L-glutamine (Corning) supplemented with 10% Fetal Bovine Serum (Hyclone) and 1× Penicillin-Streptomycin (Corning). After counting, the cell density was adjusted to 2 million cells/ml and incubated for 1 hour at 37° C., 5% CO2 for recovery. Following the recovery, the cells were plated by adding 50p per well (100,000 cells) to 384-well cell culture plates (Greiner) containing 250 nl of test antagonists in 100% DMSO per well, in a 10 points dose response in quadruplicates. PBMCs were incubated in the presence of antagonists for one hour at 37° C., 5% CO2 before being stimulated with TLR8 agonist. Compound A (Gilead Sciences, U.S. Pat. No. 10,285,990) was used as the TLR8 agonist at a final concentration of 800 nM. PBMCs were incubated in the presence of antagonist and the TLR8 agonist for an additional 6 hours at 37° C., 5% CO2. At the end of the incubation, the cell culture plates were centrifuged at 500 g for 5 min, and the cell culture supernatant was collected. The level of cytokines (TNFa and IL12p40) in the supernatant was measured by electrochemiluminescence immunoassays (Mesoscale Discovery) following manufacturer's recommended protocols. The level of cytokine measured was plotted against the antagonist concentration and fitted to a sigmoidal function to determine the EC50, which are shown below in Table 2.

[1] = target: cloned hERG potassium channel (Homo sapiens, UniProt Q12809); test: hERG FASTPatch assay (QPatch patch clamp); assay type: cell-based; conditions: hERG stably expressed in cells; 1, 3, 10 and 30 uM; room temperature; Table 3
Sequence of cloned hERG potassium channel (Q12809 whole entry): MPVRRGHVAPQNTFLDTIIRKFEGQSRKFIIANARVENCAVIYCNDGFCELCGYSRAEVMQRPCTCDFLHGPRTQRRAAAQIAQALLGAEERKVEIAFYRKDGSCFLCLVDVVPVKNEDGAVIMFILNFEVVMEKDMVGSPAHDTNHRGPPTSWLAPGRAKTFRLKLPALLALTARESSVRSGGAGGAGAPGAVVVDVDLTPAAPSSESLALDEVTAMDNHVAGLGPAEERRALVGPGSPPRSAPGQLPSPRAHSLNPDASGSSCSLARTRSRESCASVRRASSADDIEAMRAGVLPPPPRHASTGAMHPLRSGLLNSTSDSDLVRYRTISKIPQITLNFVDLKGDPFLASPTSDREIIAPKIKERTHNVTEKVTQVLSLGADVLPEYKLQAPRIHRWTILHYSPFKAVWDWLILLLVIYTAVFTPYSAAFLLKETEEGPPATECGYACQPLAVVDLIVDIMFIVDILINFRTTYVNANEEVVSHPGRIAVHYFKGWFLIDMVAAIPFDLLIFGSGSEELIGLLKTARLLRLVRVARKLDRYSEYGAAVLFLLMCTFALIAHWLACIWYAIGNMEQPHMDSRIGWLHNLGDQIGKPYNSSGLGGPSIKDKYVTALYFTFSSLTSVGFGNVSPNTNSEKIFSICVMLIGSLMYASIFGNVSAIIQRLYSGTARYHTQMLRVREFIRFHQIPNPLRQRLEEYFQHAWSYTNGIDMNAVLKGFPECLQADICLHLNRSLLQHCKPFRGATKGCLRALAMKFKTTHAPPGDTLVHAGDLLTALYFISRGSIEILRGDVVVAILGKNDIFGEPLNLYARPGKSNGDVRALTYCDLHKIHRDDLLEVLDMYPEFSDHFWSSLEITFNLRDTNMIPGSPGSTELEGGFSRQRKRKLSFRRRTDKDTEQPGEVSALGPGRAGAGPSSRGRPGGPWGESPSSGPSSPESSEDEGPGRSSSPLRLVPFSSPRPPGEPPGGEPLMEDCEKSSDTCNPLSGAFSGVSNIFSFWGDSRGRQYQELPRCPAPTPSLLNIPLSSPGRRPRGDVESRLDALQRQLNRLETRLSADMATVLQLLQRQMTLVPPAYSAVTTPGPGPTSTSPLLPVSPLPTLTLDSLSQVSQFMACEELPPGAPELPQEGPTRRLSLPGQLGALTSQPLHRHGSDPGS
Method: Human Ether-à-go-go-Related Gene (hERG) Assay
The FASTPatch® Assay (Charles River) was used to examine the in vitro effects of the compounds provided herein on the cloned hERG potassium channel encoded by the KCNHI2 gene and stably expressed in ITEK293T cells. Vehicle, test and control article formulations were prepared by diluting DMSO stock solutions in TIB-PS (HEPES-buffered physiological saline solution) and were delivered to cells via the QPatch robot pipetting system to a final concentration of 0.3% DMSO. Test compound final concentrations of 1, 3, 10 and 30 uM were applied to cells (n≥3, where n=the number of cells/concentration) in ascending order in at least three minute intervals separated by solution exchange. The positive control, 50 nM cisparide, was applied in the same manner. Cell membrane currents were recorded at room temperature with up to 48 parallel patch clamp amplifiers in the QPatch HT® or QPatch HTX® system, and only cells with validated whole-cell recordings (seal resistance ≥200 MQ and leak current ≤25% channel current) were used. Onset and block of hERG current was measured using a stimulus voltage pattern consisting of a 500 ms prepulse to −40 mV, a 2-second activating pulse to +40 mV, followed by a 2-second test pulse to −40 mV. The pulse pattern was repeated continuously at 10-second intervals from a holding potential of −80 mV. % Block={1−1/[1+([Test]/IC50)^N]}*100% Where [Test] is the concentration of test article, IC50 is the concentration of the test article producing half-maximal inhibition, N is the Hill coefficient and % Block is the percentage of current inhibited at each concentration of the test article. Nonlinear least squares fits will be solved with the Solver add-in for Excel 2000 or later (Microsoft, Redmon, WA). TurboSol analysis for test compound solubility was performed for each concentration tested using a Nephelostar reader measuring light scatter from a 635 nm laser source. Based on validation experiments, light scatter above four times the background level was considered an indication of the presence of particles in suspension.
The hERG IC50 values are provided below in Table 3.

EC50 (TLR8) [nM]	Compound	IC50 [1] [nM]
307	Cc1cc(-c2ccc3c(C)c(-c4ccc(N5CCNCC5)nc4)[nH]c3c2)cc(C)n1 [Example 2, 6-(2,6-dimethylpyridin-4-yl)-3-methyl-2-(6-(piperazin-1-yl)pyridin-3-yl)-1H-indole]	7000
18.2	Cc1c(-c2ccc(N3CCNCC3)nc2)[nH]c2cc(-c3cc(C)c4ncnn4c3)ccc12 [Example 4]	15500
34.7	CCc1c(-c2ccc(N3CCNCC3)nc2)[nH]c2cc(-c3cc(C)c4ncnn4c3)ccc12 [Example 23]	–

More lines, now with the values behind:

Compound	EC50 (TLR8) [nM]	IC50 [1] [nM]
Cc1cc(-c2ccc3c(C)c(-c4cnc(N5CCNCC5)nc4)[nH]c3c2)cc(C)n1 [Example 1, 6-(2,6-dimethylpyridin-4-yl)-3-methyl-2-(2-(piperazin-1-yl)pyrimidin-5-yl)-1H-indole]	318	–
Cc1c(-c2ccc(N3CCNCC3)nc2)[nH]c2cc(-c3ccc(C#N)c4ncccc34)ccc12 [Example 7]	21.5	–
Cc1cc(-c2[nH]c3ccc(-c4ccc(N5CCNCC5)nc4)cc3c2C(C)C)cc(C)n1 [Example A, reference compound]	–	4500
Cc1cc(-c2[nH]c3ccc(-c4ccc(N5CCNCC5)nc4)cc3c2C(C)C)cn2ncnc12 [Example B, reference compound]	–	5100
